Where “and” joins values, the source holds several entries; their conditions need not be identical. Identical values can stand only once. Entries after “also recorded” stand apart in the source; their conditions may differ.
Assays:
α-Hb = assay: In vitro α-Hb pool measurement in haemolysate (capture on GST-AHSP affinity support); format: in vivo, human; conditions: Treated SS patients (HC), n=10, mean ± SD; ng free α-Hb per mg total subunits per mL of lysed RBCs
Protocol: (§1) We centrifuged 4 mL of whole blood from each subject for 5 min at 4° C., with blood samples processed within 2 h of collection. The plasma was gently removed, leaving 3 mm above the RBCs to retain the reticulocytes; the RBCs were washed with 0.15 M NaCl and then frozen at −80° C. They were thawed on ice and lysed with four volumes of cold distilled water, and incubated for 30 min at +4° C., before centrifugation at 16,000×g for 30 min at +4° C. The RBC lysate (haemolysate) was recovered as the supernatant and stored at −80° C.
The α-Hb pool was assessed for the RBC lysates of all subjects (SS patients and controls), by capturing α-Hb subunits on GST-AHSP bound to an affinity chromatography support, as previously described.^15

AHSP = assay: Determination of AHSP concentration in haemolysates by sandwich ELISA; format: in vivo, human
Protocol: as §1
We used high-binding 96-well ELISA plates (COSTAR High Binding ELISA Plates, Corning Incorporated, Corning, NY, USA). Following each step, up to 3,3′,5,5′-tetramethylbenzidine (TMB) addition, the wells were washed three times with 300 μL DPBS-0.05% Tween-20 (DPBS-TWEEN® Tablets, Calbiochem, Millipore Corporation, Burlington, MA, USA). The wells were coated with 100 μL/well anti-Ahsp antibody (EPR12319, diluted 1:1000 in DPBS) as the capture antibody. After 2 h at 37° C., the wells were washed and blocked by incubation for 2 h at 37° C. with 300 μL blocking buffer (0.15% BSA in DPBS). The wells were washed and left to dry in air, covered with SealPlate and stored at 4° C.
Serial dilutions of recombinant AHSP stored in −80° C. were prepared (0.395 to 3 ng/mL) in blocking buffer and added to the plate in duplicate in each assay, for construction of the calibration curve. Diluted recombinant AHSP were added to the coated wells (100 μL/well) and the plates were incubated for 2 h at 37° C. The plates were washed and 100 μL of biotin-conjugated rabbit polyclonal anti-human recombinant Ahsp antibody (Met1-Ser102) (ABIN2615200, Antibodies-online Gmb, Aachen, Germany, diluted 1:255 in blocking buffer), used as the detecting antibody, were added to each well, and the plates were incubated for 1 h at 37° C. The plates were washed five times and the samples were then incubated with 100 μL/well streptavidin-HRP (DY998, R&D Systems, Minneapolis, MN, USA, diluted 1:100 in blocking buffer) for 20 min at 37° C. in the dark. Next steps, washes and incubations, were performed in the dark. The reaction was developed by adding 50 μL/well TMB as a substrate (1-Step™ Ultra TMB-ELISA, Thermo Fisher Scientific). The plates were incubated for 5-10 min, and the reaction was then stopped by adding 50 μL/well 1 N sulfuric acid. Absorbance was measured immediately, at 450 nm (A450), with a microplate reader (Eon™, BioTek Instruments Inc, Winooski, Vermont, USA).
A standard curve was generated with known concentrations and absorbances of the recombinant human AHSP, with the EON microplate reader and Gen5 software.
The haemolysates were diluted 1:1000 in blocking buffer and added (100 μL/well) to the plate coated with the capture antibody. The plates were incubated for 2 h at 37° C., washed and 100 μL of the detecting antibody were added to each well, and then the plates were incubated for 1 h at 37° C. The further procedure is the same as for the AHSP range described above. The AHSP concentrations of the diluted haemolysates were determined by comparison to the standard curve expressed as ng per mL by the microplate reader. All the concentrations of AHSP obtained are the means of four ELISAs. Finally, taking into account the 1000-fold dilution of haemolysates, the final concentrations are reported in μg AHSP per mL of haemolysate.
The inter-subject variabilities were determined by calculating the CVs for four independent measurements of biological AHSP in each haemolysate.

SS patients = assay: Routine clinical and laboratory (haematological and biological) data in SS patients with HC treatment
[1] = HC-treated SS patients, n=10, FIG. 1
[2] = Treated SS patients (HC), n=10, mean ± SD

NC(=O)NO [HC, hydroxycarbamide]
α-Hb pool (α-Hb): 162 ± 31 ppm | AHSP concentration, interquartile range (IQR) (AHSP; HC-treated SS patients, n=10): 1.26 to 1.76 µg/mL | AHSP concentration, maximum value (AHSP; [1]): 2.16 μg AHSP per mL of haemolysate | AHSP concentration, minimum value (AHSP; [1]): 1.18 μg AHSP per mL of haemolysate | Effect of HC treatment on AHSP concentration in RBCs (in words) (AHSP; HC-treated vs untreated SS patients, remained higher than in controls): significantly lower; also recorded: significantly decreased | Measured [AHSP], individual treated patients (AHSP; Individual HC-treated SS patients P13-P22, average of 3 or 4 independent measurements ± SD, haemolysate): 1.37 ± 0.17 µg/mL and 2.16 ± 0.29 µg/mL and 1.99 ± 0.26 µg/mL and 1.32 ± 0.13 µg/mL and 1.18 ± 0.21 µg/mL and 1.29 ± 0.23 µg/mL and 1.19 ± 0.28 µg/mL and 1.34 ± 0.15 µg/mL and 1.44 ± 0.17 µg/mL and 1.69 ± 0.15 µg/mL | Measured [AHSP], group mean (AHSP; Treated SS patients (HC), n=10, mean ± SD, RBC haemolysate): 1.50 ± 0.34 µg/mL | LDH (SS patients; Treated SS patients (HC), n = 9, mean ± SD): 403.2 ± 68.09 U/L | DRBCs (dense dehydrated RBCs, density > 1.110 g/mL) (SS patients; [2]): 4.3% and 4.3 ± 2.54% | Ferritin (SS patients; [2]): 333.2 ± 206.8 µg/L | Haematocrit (SS patients; [2]): 28.4 ± 4.74% | Hb (SS patients; [2]): 9.9 ± 1.58 g/dL | HbA2 (SS patients; [2]): 2.04 ± 0.53% | HbF (SS patients; [2]): 21.51% and 21.51 ± 5.36% | HbS (SS patients; [2]): 76.45 ± 4.9% | MCH (SS patients; [2]): 39.7 ± 4.76 pg | MCHC (SS patients; [2]): 34.8 ± 0.79 g/dL | MCHbF (% HbF × MCH) (SS patients; [2]): 8.69 ± 2.81 pg | MCHbS (% HbS × MCH) (SS patients; [2]): 30.22 ± 2.89 pg | MCV (SS patients; [2]): 114.3 ± 13.43 fL | Platelets (SS patients; [2]): 355.8 ± 125.5 ×10^9/L | RBC (SS patients; [2]): 2.42 ± 0.45 ×10^12/L | RDW (SS patients; [2]): 17 ± 2.26% | Reticulocytes (SS patients; [2]): 114.7 ± 45.87 ×10^9/L | Reticulocytes (%) (SS patients; [2]): 4.57 ± 1.79% | Total bilirubin (SS patients; [2]): 28.5 ± 14.18 µmol/L | WBC (SS patients; Treated SS patients (stable HC treatment for at least one year), n=10, mean ± SD): 6.88 ± 1.46 ×10^9/L

— patent publication US20240319209A1, “METHOD FOR QUANTIFYING AHSP PROTEIN AND ITS USE FOR PROGNOSING A HAEMOGLOBIN-RELATED DISORDER” (INSTITUT NATIONAL DE LA SANTÉ ET DE LA RECHERCHE MÉDICALE, priority 2021, published 2024)
